{"source": "patent US5583018A", "about": "“Rapamycin derivative process for its preparation and its use” (SmithKline Beecham p.l.c., priority 1993, dated 1996)", "key": {"Saccharomyces cerevisiae": {"test_system": "Saccharomyces cerevisiae", "experiment": "Assay for antifungal activity (agar well zone of inhibition)", "format": "cell-based", "procedure": "Yeast organism (Saccharomyces cerevisiae) in logarithmic growth were plated on complete agar medium (YPD). Compounds dissolved in an appropriate aqueous or organic solvent were placed in wells punched in the agar. Plates were incubated for 48 hours and zones of inhibition were measured. The potency of compounds were quantified by regression analysis of plots of inhibition zone versus the log of drug concentration."}, "Spleen cells": {"test_system": "Spleen cells", "experiment": "Mitogenesis assay for immunosuppressive activity (Concanavalin A stimulated spleen cells, 3H-thymidine)", "format": "cell-based, BDF1 female mice", "procedure": "Spleen cells for BDF1 female mice were established in RPMI with 10% fetal calf serum at 5×10^6 /mL. One hundred […] of this suspension (5×10^5 cells) were dispensed into 96-well round-bottomed microtiter plates (Linbro, Flow Laboratories). Concanavalin A (5 μg/ml) was added as the mitogenic stimulus, and the final volume in the microliter wells was adjusted to 200 μL with RPMI. Cell cultures were incubated for 72 hours at 37° C. in a 5% CO2 atmosphere and pulsed with 0,5 μCi ^3 H-thymidine (specific activity […]) for the last 18 hours of the 72 hours culture. The cells were harvested on an automated multiple sample harvester and cell-associated radioactivity counted in a Beckman liquid scintillation counter. The results were expressed as the mean values derived from quadruplicate measurements. Cell viability was determined by trypan blue exclusion after 72 hours of incubation. Compounds to be tested were added to the microtiler plates at the appropriate dilutions prior to the addition of cells."}}}
{"substance": "13,14-Bis(dihydro)rapamycin", "values": [{"measurement": "antifungal activity (in words)", "setting": "Saccharomyces cerevisiae", "result": "shows antifungal activity"}, {"measurement": "Antifungal Activity, IC12", "setting": "Saccharomyces cerevisiae; Saccharomyces cerevisiae on YPD agar, 48 hours, zones of inhibition", "result": "190 to 840", "unit": "ng/mL"}, {"measurement": "immunomodulatory activity (in words)", "setting": "Spleen cells", "result": "shows immunomodulatory activity"}, {"measurement": "IC50", "setting": "Spleen cells; spleen cells of BDF1 mice, Concanavalin A 5 μg/ml, 72 hours", "result": "0.07 to 0.2", "unit": "µM"}]}
